In patent US9085555B2, “Complement pathway modulators and uses thereof” (priority 2011, dated 2015):

The molecules below were run against Factor D (Homo sapiens (Human), UniProt P00746) (assay: biochemical). Conditions: read-out: IC50.
Assay type: biochemical

Factor D, sequence (P00746 26-253): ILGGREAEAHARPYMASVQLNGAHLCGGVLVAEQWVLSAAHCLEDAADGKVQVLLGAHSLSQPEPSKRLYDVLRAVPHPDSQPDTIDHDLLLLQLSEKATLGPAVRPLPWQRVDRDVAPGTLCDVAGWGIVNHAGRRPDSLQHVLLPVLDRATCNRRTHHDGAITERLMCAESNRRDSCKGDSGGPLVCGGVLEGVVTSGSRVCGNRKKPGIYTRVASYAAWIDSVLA

Going from CC(=O)NC[C@@]1(F)C[C@@H](C(=O)NCc2cccc(Cl)c2F)N(C(=O)Nc2cn(C(N)=O)c3ccccc23)C1 [Example 221, (2S,4S)-4-(Acetylamino-methyl)-4-fluoro-pyrrolidine-1,2-dicarboxylic acid 1-[(1-carbamoyl-1H-indol-3-yl)-amide] 2-(3-chloro-2-fluoro-benzylamide)] to NC(=O)n1cc(NC(=O)N2C[C@](F)(CF)C[C@H]2C(=O)NCc2cccc(Cl)c2F)c2ccccc21 [Example 241, (2S,4S)-4-Fluoro-4-fluoromethyl-pyrrolidine-1,2-dicarboxylic acid 1-[(1-carbamoyl-1H-indol-3-yl)-amide] 2-(3-chloro-2-fluoro-benzylamide)], the IC50 rises from 0.023 µM to 0.25 µM (11-fold). The first is the more potent here.

Compared with NC(=O)n1cc(NC(=O)N2C[C@H](F)C[C@H]2C(=O)NCc2cccc(C(F)(F)F)c2F)c2ccccc21 [Example 222, (2S,4R)-4-Fluoro-pyrrolidine-1,2-dicarboxylic acid 1-[(1-carbamoyl-1H-indol-3-yl)-amide] 2-(2-fluoro-3-trifluoromethyl-benzylamide)], NC(=O)n1cc(NC(=O)N2C[C@H](F)C[C@H]2C(=O)NCc2ccnc(C(F)(F)F)c2F)c2ccccc21 [Example 232, (2S,4R)-4-Fluoro-pyrrolidine-1,2-dicarboxylic acid 1-[(1-carbamoyl-1H-indol-3-yl)-amide] 2-[(3-fluoro-2-trifluoromethyl-pyridin-4-ylmethyl)-amide]] is 7.2-fold higher in IC50: 0.137 µM for the first, 0.989 µM for the second.

Going from NC(=O)n1cc(NC(=O)N2[C@@H]3C[C@@H]3C[C@H]2C(=O)N[C@H](CCO)c2cccc(Cl)c2F)c2ccccc21 [Example 223, (1R,3S,5R)-2-Azabicyclo[3.1.0]hexane-2,3-dicarboxylic acid 2-[(1-carbamoyl-1H-indol-3-yl)-amide] 3-{[(R)-1-(3-chloro-2-fluoro-phenyl)-3-hydroxy-propyl]-amide}] to COC[C@@H](NC(=O)[C@@H]1C[C@H]2C[C@H]2N1C(=O)Nc1cn(C(N)=O)c2ccccc12)c1cccc(Cl)c1F [Example 236, (1R,3S,5R)-2-Aza-bicyclo[3.1.0]hexane-2,3-dicarboxylic acid 2-[(1-carbamoyl-1H-indol-3-yl)-amide] 3-{[(S)-1-(3-chloro-2-fluoro-phenyl)-2-methoxy-ethyl]-amide}], the IC50 falls from 0.012 µM to 0.008 µM (1.5-fold). The second is the more potent here.

Compared with COc1ccc(CNC(=O)[C@@H]2SCCN2C(=O)Nc2cn(C(N)=O)c3ccccc23)c(F)c1F [Example 225, (S)-Thiazolidine-2,3-dicarboxylic acid 3-[(1-carbamoyl-1H-indol-3-yl)-amide] 2-(2,3-difluoro-4-methoxy-benzylamide)], COc1cc(F)c(F)c(CNC(=O)[C@@H]2SCCN2C(=O)Nc2cn(C(N)=O)c3ccccc23)c1 [Example 235, (S)-Thiazolidine-2,3-dicarboxylic acid 3-[(1-carbamoyl-1H-indol-3-yl)-amide] 2-(2,3-difluoro-5-methoxy-benzylamide)] is 4.4-fold lower in IC50: 0.35 µM for the first, 0.08 µM for the second. The second is the more potent here.

Compared with NC(=O)n1cc(NC(=O)N2[C@@H]3C[C@@H]3C[C@H]2C(=O)NCc2cccnc2)c2ccccc21 [Example 226, (1R,3S,5R)-2Azabicyclo[3.1.0]hexane-2,3-dicarboxylic acid 2-[(1-carbamoyl-1H-indol-3-yl)amide] 3-[(pyridin-3-ylmethyl)-amide]], NC(=O)n1cc(NC(=O)N2C3CC3C[C@H]2C(=O)NCc2cncc(Cl)c2)c2ccccc21 (stereo partly drawn) [Example 228, (1R,3S,5R)-2-Aza-bicyclo[3.1.0]hexane-2,3-dicarboxylic acid 2-[(1-carbamoyl-1H-indol-3-yl)-amide] 3-[(5-chloro-pyridin-3-ylmethyl)-amide]] is 4.2-fold lower in IC50: 0.417 µM for the first, 0.1 µM for the second.

C[C@H]1CCN(C(=O)Nc2cn(C(N)=O)c3ccccc23)[C@@H]1C(=O)Nc1cccc(OC(F)(F)F)c1 [Example 227, (2S,3S)-3-Methyl-pyrrolidine-1,2-dicarboxylic acid 1-[(1-carbamoyl-1H-indol-3-yl)-amide] 2-[(3-trifluoromethoxy-phenyl)-amide]] and NC(=O)n1cc(NC(=O)N2CCC[C@H]2C(=O)Nc2cccc(S(N)(=O)=O)c2)c2ccccc21 [Example 233, (S)-Pyrrolidine-1,2-dicarboxylic acid 1-[(1-carbamoyl-1H-indol-3-yl)-amide] 2-[(3-sulfamoyl-phenyl)-amide]] are within 1.5-fold of each other in IC50: 0.8 µM for the first, 0.85 µM for the second.

Going from C[C@@]1(F)C[C@@H](C(=O)N[C@H](CCO)c2cccc(Cl)c2F)N(C(=O)Nc2cn(C(N)=O)c3ccccc23)C1 [Example 229, (2S,4R)-4-Fluoro-4-methyl-pyrrolidine-1,2-dicarboxylic acid 1-[(1-carbamoyl-1H-indol-3-yl)-amide] 2-{[(R)-1-(3-chloro-2-fluoro-phenyl)-3-hydroxy-propyl]-amide}] to C[C@@]1(F)C[C@@H](C(=O)N[C@H](CO)c2cccc(Cl)c2F)N(C(=O)Nc2cn(C(N)=O)c3ccccc23)C1 [Example 239, (2S,4R)-4-Fluoro-4-methyl-pyrrolidine-1,2-dicarboxylic acid 1-[(1-carbamoyl-1H-indol-3-yl)-amide] 2-{[(S)-1-(3-chloro-2-fluoro-phenyl)-2-hydroxy-ethyl]-amide}], the IC50 rises from 0.029 µM to 0.052 µM (1.8-fold).

First: NC(=O)n1cc(NC(=O)N2C[C@H](F)C[C@H]2C(=O)NCc2ccncc2F)c2ccccc21 [Example 230, (2S,4R)-4-Fluoro-pyrrolidine-1,2-dicarboxylic acid 1-[(1-carbamoyl-1H-indol-3-yl)-amide] 2-[(3-fluoro-pyridin-4-ylmethyl)-amide]]
Second: NC(=O)n1cc(NC(=O)N2C[C@H](F)C[C@H]2C(=O)NCc2cncc(Cl)c2)c2ccccc21 [Example 237, (2S,4R)-4-Fluoro-pyrrolidine-1,2-dicarboxylic acid 1-[(1-carbamoyl-1H-indol-3-yl)-amide] 2-[(5-chloro-pyridin-3-ylmethyl)-amide]]
The IC50 of the first is 36-fold higher: 2.55 µM for the first, 0.07 µM for the second.

Going from COC[C@@H](NC(=O)[C@@H]1[C@@H]2C[C@@H]2CN1C(=O)Nc1cn(C(N)=O)c2ccccc12)c1cccc(Cl)c1F [Example 231, (1R,2S,5S)-3-Aza-bicyclo[3.1.0]hexane-2,3-dicarboxylic acid 3-[(1-carbamoyl-1H-indol-3-yl)-amide] 2-{[(S)-1-(3-chloro-2-fluoro-phenyl)-2-methoxy-ethyl]-amide}] to COC[C@@H](NC(=O)[C@@H]1[C@H]2C[C@H]2CN1C(=O)Nc1cn(C(N)=O)c2ccccc12)c1cccc(Cl)c1F [Example 245, (1S,2S,5R)-3-Aza-bicyclo[3.1.0]hexane-2,3-dicarboxylic acid 3-[(1-carbamoyl-1H-indol-3-yl)-amide] 2-{[(S)-1-(3-chloro-2-fluoro-phenyl)-2-methoxy-ethyl]-amide}], the IC50 rises from 0.103 µM to 1.05 µM (10-fold).

First: CCc1cccc(NC(=O)[C@@H]2CCCN2C(=O)Nc2cn(C(N)=O)c3ccccc23)n1 [Example 238, (S)-Pyrrolidine-1,2-dicarboxylic acid 1-[(1-carbamoyl-1H-indol-3-yl)-amide] 2-[(6-ethyl-pyridin-2-yl)-amide]]
Second: NC(=O)n1cc(NC(=O)N2[C@@H]3C[C@@H]3C[C@H]2C(=O)Nc2cncc(Cl)c2)c2ccccc21 [Example 247, (1R,3S,5R)-2-Aza-bicyclo[3.1.0]hexane-2,3-dicarboxylic acid 2-[(1-carbamoyl-1H-indol-3-yl)-amide] 3-[(5-chloro-pyridin-3-yl)-amide]]
The IC50 of the first is 1.6-fold higher: 0.65 µM for the first, 0.4 µM for the second.

Going from CNC(=O)c1cc(Cl)c(F)c(CNC(=O)[C@@H]2C[C@@H](F)CN2C(=O)Nc2cn(C(N)=O)c3ccccc23)c1 [Example 240, (2S,4R)-4-Fluoro-pyrrolidine-1,2-dicarboxylic acid 1-[(1-carbamoyl-1H-indol-3-yl)-amide] 2-(3-chloro-2-fluoro-5-methylcarbamoyl-benzylamide)] to COC(=O)c1cc(Cl)c(F)c(CNC(=O)[C@@H]2C[C@@H](F)CN2C(=O)Nc2cn(C(N)=O)c3ccccc23)c1 [Example 244, 3-({[(2S,4R)-1-(1-Carbamoyl-1H-indol-3-ylcarbamoyl)-4-fluoro-pyrrolidine-2-carbonyl]-amino}-methyl)-5-chloro-4-fluoro-benzoic acid methyl ester], the IC50 falls from 0.141 µM to 0.017 µM (8.3-fold). The second is the more potent here.

First: NC(=O)n1cc(NC(=O)N2C3CC3C[C@H]2C(=O)NCc2ncccc2F)c2ccccc21 (stereo partly shown) [Example 242]
Second: CN(C)C[C@@H](NC(=O)[C@@H]1C[C@@H](F)CN1C(=O)Nc1cn(C(N)=O)c2ccccc12)c1cccc(Cl)c1F [Example 248, (2S,4R)-4-Fluoro-pyrrolidine-1,2-dicarboxylic acid 1-[(1-carbamoyl-1H-indol-3-yl)-amide] 2-{[(S)-1-(3-chloro-2-fluoro-phenyl)-2-dimethylamino-ethyl]-amide}]
The IC50 of the first is 1.7-fold higher: 0.2 µM for the first, 0.119 µM for the second. The second is the more potent here.

First: NC(=O)n1cc(NC(=O)N2C[C@@](F)(CN3CCOCC3)C[C@H]2C(=O)NCc2cccc(Cl)c2F)c2ccccc21 [Example 243, (2S,4S)-4-Fluoro-4-morpholin-4-ylmethyl-pyrrolidine-1,2-dicarboxylic acid 1-[(1-carbamoyl-1H-indol-3-yl)-amide] 2-(3-chloro-2-fluoro-benzylamide)]
Second: NC(=O)n1cc(NC(=O)N2C[C@H](F)C[C@H]2C(=O)NCc2cc(C(=O)N3CCOCC3)cc(Cl)c2F)c2ccccc21 [Example 250, (2S,4R)-4-Fluoro-pyrrolidine-1,2-dicarboxylic acid 1-[(1-carbamoyl-1H-indol-3-yl)-amide] 2-[3-chloro-2-fluoro-5-(morpholine-4-carbonyl)-benzylamide]]
The IC50 of the first is 2.7-fold lower: 0.2 µM for the first, 0.549 µM for the second. The first is the more potent here.

Going from NC(=O)n1cc(NC(=O)N2C[C@H](F)C[C@H]2C(=O)NC(C(=O)O)c2cccc(Cl)c2)c2ccccc21 (stereo partly drawn) [Example 246, {[(2S,4R)-1-(1-Carbamoyl-1H-indol-3-ylcarbamoyl)-4-fluoro-pyrrolidine-2-carbonyl]-amino}-(3-chloro-phenyl)-acetic acid] to CCN(CC)c1cc(Cl)c(F)c(CNC(=O)[C@@H]2C[C@@H](F)CN2C(=O)Nc2cn(C(N)=O)c3ccccc23)c1 [Example 252, (2S,4R)-4-Fluoro-pyrrolidine-1,2-dicarboxylic acid 1-[(1-carbamoyl-1H-indol-3-yl)-amide] 2-(3-chloro-5-diethylamino-2-fluoro-benzylamide)], the IC50 falls from 2 µM to 0.114 µM (18-fold).
